# Results taken from patent publication US20260272924A1, “ISOINDOLINE DERIVATIVE, BENZOINDOLE DERIVATIVE AND USE THEREOF” (SHANGHAI HELIOSON PHARMACEUTICAL CO., LTD., priority 2023, published 2026).
# Assays:
# Format in all cases: cell-based
# IKZF1 = biological target: T1, IKZF1 (Homo sapiens, UniProt Q13422+Q96SW2); test: Protein degradation assay (In-Cell Western), IKZF1; conditions: NCI-H929 cells, 24 hours
# T1 construct: NCI-H929 cells were inoculated into a 96-well plate at 100,000 cells per well and cultured overnight; endogenous in cells; host or cells: NCI-H929
# Method: (§1) NCI-H929 cells were inoculated into a 96-well plate at 100,000 cells per well and cultured overnight. Compounds at concentrations of 1600 nM, 400 nM, 100 nM, 25 nM, 6.25 nM, 1.56 nM, 0.39 nM, and 0.1 nM were dosed with duplicate wells, and the cells were incubated in an incubator at 37° C. for 24 hours. After the incubation, the supernatant was removed by centrifugation, and 150 μL of 4% paraformaldehyde was added. The cells were incubated at room temperature for 20 minutes, then, 200 μL of a washing solution (0.1% TritonX-100, Beyotime; ST1722) was added and incubated at room temperature on a shaker. After repeating the washing four times, 150 μL of a Licor INTERCEPT blocking solution (Lico, Cat No. 927-70001) was added, and the cells were incubated on a shaker at room temperature for 1.5 hours. Antibodies IKZF1 (Cell Signaling; Cat No. 14859S), IKZF3 (Cell Signaling; Cat No. 15103S), GSPT1 (Proteintech, Cat No. 10763-1-AP), CK1a (Thermo; 7117067), and SALL4 (Abcam, ab22675) were diluted with an antibody dilution solution (Intercept Blocking Buffer, LI-COR, 211114) at 1:100 and 50 μL of each diluted primary antibody was added into the 96-well plate. The cells were incubated overnight on a shaker at 4° C. After the primary antibodies were removed and repeated washing was performed with PBST for 4 times, 50 μL of a diluted secondary antibody (Licor, Cat No. 926-68070) was added, and IRDye 800CW and IRDye 680CW were added at 0.5 μL simultaneously. The secondary antibody was sucked away, PBST was added, repeated washing was performed on a shaker at room temperature for 4 times, and a signal intensity was detected using an infrared laser imaging system (Lico, Odyssey-CLx).
# [1] = tested on: NCI-H929 multiple myeloma cells; test: Cell Titer-GLO (CTG) assay for proliferation of NCI-H929 cells; conditions: Homo sapiens, 72 hours
# Method in brief: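 NCI-H929 cells, 5000/well, treated next day with compound from 0.00512 to 400 nM (5-fold steps, duplicates) for 72 h at 37° C. Viability by CellTiter-Glo luminescence, normalised to 0.1% DMSO and medium blank; IC50 and maximal inhibition from nonlinear dose-response regression.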
# IKZF3 = biological target: T2, IKZF3 (Homo sapiens, UniProt Q96SW2+Q9UKT9); test: Protein degradation assay (In-Cell Western), IKZF3; conditions: NCI-H929 cells, 24 hours
# T2 construct: endogenous in cells; host or cells: NCI-H929
# Method: as §1
# T1 sequence (Q13422 whole entry): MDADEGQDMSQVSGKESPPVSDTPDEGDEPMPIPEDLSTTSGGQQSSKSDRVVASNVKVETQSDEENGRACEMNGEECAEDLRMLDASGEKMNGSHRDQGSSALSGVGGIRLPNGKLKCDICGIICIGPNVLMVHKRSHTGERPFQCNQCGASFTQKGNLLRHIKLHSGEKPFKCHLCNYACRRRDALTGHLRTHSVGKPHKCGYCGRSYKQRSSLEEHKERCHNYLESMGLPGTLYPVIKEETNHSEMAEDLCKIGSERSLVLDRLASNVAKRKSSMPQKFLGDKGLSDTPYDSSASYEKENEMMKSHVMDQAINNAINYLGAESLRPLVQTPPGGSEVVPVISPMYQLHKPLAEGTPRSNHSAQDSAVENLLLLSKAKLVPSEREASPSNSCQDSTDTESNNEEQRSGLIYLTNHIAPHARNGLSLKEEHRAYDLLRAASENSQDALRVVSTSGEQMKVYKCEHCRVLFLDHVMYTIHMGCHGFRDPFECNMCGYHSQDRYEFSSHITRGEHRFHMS
# T1 sequence (Q96SW2 whole entry): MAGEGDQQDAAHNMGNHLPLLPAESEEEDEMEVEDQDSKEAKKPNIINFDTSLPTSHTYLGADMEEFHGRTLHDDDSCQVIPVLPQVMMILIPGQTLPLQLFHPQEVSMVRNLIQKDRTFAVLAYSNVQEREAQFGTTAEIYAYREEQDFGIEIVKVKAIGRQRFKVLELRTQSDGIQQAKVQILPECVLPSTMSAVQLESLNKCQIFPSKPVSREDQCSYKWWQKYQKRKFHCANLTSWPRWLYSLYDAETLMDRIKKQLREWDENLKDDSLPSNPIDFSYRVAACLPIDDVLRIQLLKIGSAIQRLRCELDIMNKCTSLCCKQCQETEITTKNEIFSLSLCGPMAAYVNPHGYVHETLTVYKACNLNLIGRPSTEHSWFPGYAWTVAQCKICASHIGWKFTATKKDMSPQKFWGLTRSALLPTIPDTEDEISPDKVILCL
# T1 sequence (Q16531 whole entry partner): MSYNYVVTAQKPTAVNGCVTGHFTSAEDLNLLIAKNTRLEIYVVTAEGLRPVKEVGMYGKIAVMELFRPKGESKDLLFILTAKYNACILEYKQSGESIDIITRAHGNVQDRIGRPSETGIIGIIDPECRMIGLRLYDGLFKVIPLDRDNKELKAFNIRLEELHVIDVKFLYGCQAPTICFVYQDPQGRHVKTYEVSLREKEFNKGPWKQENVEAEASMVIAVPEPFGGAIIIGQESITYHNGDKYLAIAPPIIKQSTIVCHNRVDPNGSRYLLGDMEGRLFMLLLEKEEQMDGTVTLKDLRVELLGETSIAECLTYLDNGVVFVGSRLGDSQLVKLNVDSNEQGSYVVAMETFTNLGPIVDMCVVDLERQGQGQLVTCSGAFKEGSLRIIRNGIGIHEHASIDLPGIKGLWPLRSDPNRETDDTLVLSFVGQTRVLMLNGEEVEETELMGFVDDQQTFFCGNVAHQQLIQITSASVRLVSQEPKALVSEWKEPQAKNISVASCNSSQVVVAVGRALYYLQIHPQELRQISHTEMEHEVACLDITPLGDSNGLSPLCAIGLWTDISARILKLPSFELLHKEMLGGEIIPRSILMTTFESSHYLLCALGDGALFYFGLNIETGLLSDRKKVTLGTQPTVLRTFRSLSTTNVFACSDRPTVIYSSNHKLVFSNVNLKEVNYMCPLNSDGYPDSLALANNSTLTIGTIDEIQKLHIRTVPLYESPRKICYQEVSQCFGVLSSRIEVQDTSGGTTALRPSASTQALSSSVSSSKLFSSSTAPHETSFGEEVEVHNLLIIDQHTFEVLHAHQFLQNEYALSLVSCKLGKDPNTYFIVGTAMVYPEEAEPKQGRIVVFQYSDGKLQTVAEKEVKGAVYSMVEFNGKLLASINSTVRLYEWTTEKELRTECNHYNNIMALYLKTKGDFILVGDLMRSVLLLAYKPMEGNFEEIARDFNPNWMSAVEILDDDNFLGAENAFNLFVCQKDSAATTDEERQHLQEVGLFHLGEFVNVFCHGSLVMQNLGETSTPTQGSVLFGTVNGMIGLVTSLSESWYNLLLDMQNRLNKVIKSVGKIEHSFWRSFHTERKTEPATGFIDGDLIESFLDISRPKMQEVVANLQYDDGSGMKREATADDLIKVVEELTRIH
# T2 sequence (Q9UKT9 whole entry): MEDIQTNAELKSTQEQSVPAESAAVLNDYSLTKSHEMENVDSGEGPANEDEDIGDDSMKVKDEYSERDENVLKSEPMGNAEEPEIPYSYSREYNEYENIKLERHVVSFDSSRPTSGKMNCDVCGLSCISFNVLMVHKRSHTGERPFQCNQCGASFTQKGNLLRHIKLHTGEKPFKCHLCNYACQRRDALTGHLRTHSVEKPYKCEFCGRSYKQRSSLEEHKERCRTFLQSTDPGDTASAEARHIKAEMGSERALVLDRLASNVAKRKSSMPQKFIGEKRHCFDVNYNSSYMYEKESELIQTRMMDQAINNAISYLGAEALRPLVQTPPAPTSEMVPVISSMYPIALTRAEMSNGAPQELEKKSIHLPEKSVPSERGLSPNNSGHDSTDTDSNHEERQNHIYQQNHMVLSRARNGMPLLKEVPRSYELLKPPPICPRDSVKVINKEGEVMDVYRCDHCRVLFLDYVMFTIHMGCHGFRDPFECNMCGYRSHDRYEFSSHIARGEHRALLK
# T2 sequence (Q96SW2 whole entry): as the sequence (Q96SW2 whole entry) above
# T2 sequence (Q16531 whole entry partner): as the sequence (Q16531 whole entry partner) above
Compound,DC50 (IKZF1),Dmax (IKZF1),IC50 [1],DC50 (IKZF3),Dmax (IKZF3)
"Cc1nc(N2CCN(Cc3ccc(Cc4ccc5c6c(cccc46)C(=O)N5[C@@H]4CCC(=O)NC4=O)cc3)CC2)cc(-n2cnc(C(F)(F)F)c2)n1 [Example 31, (R)-3-(6-(4-((4-(2-methyl-6-(4-(trifluoromethyl)-1H-imidazol-1-yl)pyrimidin-4-yl)piperazin-1-yl)methyl)benzyl)-2-oxobenzo[cd]indol-1(2H)-yl)piperidin-2,6-dione]",0.34 nM,77%,0.01 nM,0.16 nM,75%
"O=C1CC[C@H](N2Cc3c(OCc4ccc(CN5CCN(c6ccnc(-n7ccnc7)n6)CC5)cc4)cccc3C2=O)C(=O)N1 [Example 1, (S)-3-(4-((4-((4-(2-(1H-imidazol-1-yl)pyrimidin-4-yl)piperazin-1-yl)methyl)benzyl)oxy)-1-oxoisoindolin-2-yl)piperidin-2,6-dione]",0.31 nM,75.8%,0.03 nM,0.12 nM,71.4%
"O=C1CCC(N2C(=O)c3cccc4c(Cc5ccc(CN6CCN(C(=O)c7cccc(-n8ccnc8)n7)CC6)cc5)ccc2c34)C(=O)N1 (centres unmarked) [Example 4, 3-(6-(4-((4-(6-(1H-imidazol-1-yl)pyridin-2-carbonyl)piperazin-1-yl)methyl)benzyl)-2-oxobenzo[cd]indol-1(2H)-yl)piperidin-2,6-dione]",0.38 nM,73.6%,0.03 nM,0.19 nM,70.3%
"O=C1CCC(N2C(=O)c3cccc4c(Cc5ccc(CN6CCN(C(=O)c7ccnc(-n8ccnc8)n7)CC6)cc5)ccc2c34)C(=O)N1 (centres unmarked) [Example 5, 3-(6-(4-((4-(2-(1H-imidazol-1-yl)pyrimidin-4-carbonyl)piperazin-1-yl)methyl)benzyl)-2-oxobenzo[cd]indol-1(2H)-yl)piperidin-2,6-dione]",0.23 nM,68.4%,0.06 nM,0.12 nM,73.8%
"Cc1nncn1-c1cccc(N2CCN(Cc3ccc(Cc4ccc5c6c(cccc46)C(=O)N5C4CCC(=O)NC4=O)cc3)CC2)n1 (centres unmarked) [Example 28, 3-(6-(4-((4-(6-(3-methyl-4H-1,2,4-triazol-4-yl)pyridin-2-yl)piperazin-1-yl)methyl)benzyl)-2-oxobenzo[cd]indol-1(2H)-yl)piperidin-2,6-dione]",–,–,0.03 nM,–,–
"O=C1CCC(N2C(=O)c3cccc4c(Cc5ccc(CN6CCN(c7cccc(-c8nnc(C(F)(F)F)s8)n7)CC6)cc5)ccc2c34)C(=O)N1 (centres unmarked) [Example 63, 3-(2-oxo-6-(4-((4-(6-(5-(trifluoromethyl)-1,3,4-thiadiazol-2-yl)pyridin-2-yl)piperazin-1-yl)methyl)benzyl)benzo[cd]indol-1(2H)-yl)piperidin-2,6-dione]",–,–,0.2 nM,–,–
"O=C1CCC(N2C(=O)c3cccc4c(Cc5ccc(CN6CCN(c7ccnc(-n8ccnc8)n7)CC6)cc5)ccc2c34)C(=O)N1 (centres unmarked) [Example 3, 3-(6-(4-((4-(2-(1H-imidazol-1-yl)pyrimidin-4-yl)piperazin-1-yl)methyl)benzyl)-2-oxobenzo[cd]indol-1(2H)-yl)piperidin-2,6-dione]",0.081 nM,73.6%,0.003 nM,0.05 nM,76.6%
"O=C1CCC(N2C(=O)c3cccc4c(Cc5ccc(CN6CCN(c7ccnc(-n8cnc(Cl)c8)n7)CC6)cc5)ccc2c34)C(=O)N1 (centres unmarked) [Example 43, 3-(6-(4-((4-(2-(4-chloro-1H-imidazol-1-yl)pyrimidin-4-yl)piperazin-1-yl)methyl)benzyl)-2-oxobenzo[cd]indol-1(2H)-yl)piperidin-2,6-dione]",–,–,0.02 nM,–,–
"Cc1ncc(-c2ncc(F)c(N3CCN(Cc4ccc(Cc5ccc6c7c(cccc57)C(=O)N6C5CCC(=O)NC5=O)cc4)CC3)n2)s1 (centres unmarked) [Example 67, 3-(6-(4-((4-(5-fluoro-2-(2-methylthiazol-5-yl)pyrimidin-4-yl)piperazin-1-yl)methyl)benzyl)-2-oxobenzo[cd]indol-1(2H)-yl)piperidin-2,6-dione]",–,–,0.07 nM,–,–
